In PMC3688767, “Lipoprotein FtsB in Streptococcus pyogenes Binds Ferrichrome in Two Steps with Residues Tyr137 and Trp204 as Critical Ligands” (PLoS ONE, 2013):
Values joined by “and” are separate entries in the source; they are usually repeats but may differ in a detail not shown here. Identical values can stand only once. Square brackets hold non-standard residues; d marks the D form. Peptide text beside a SMILES is read from it. Orn(N5-OH,N5-Ac) = CC(=O)N(O)CCC[C@H](N)C(=O)O

What was measured:
WT FtsB [1] = target: T1, WT FtsB (Streptococcus pyogenes, UniProt Q9A198); assay: Stopped-flow fluorescence binding kinetics; details: WT FtsB 10 µM mixed with Fch 1∶1, 25°C, pH 7.2, second-order exponential fit; listed as Fch
Procedure: (§1) Binding kinetics experiments were carried out using a stopped-ﬂow ﬂuorescence spectrometer (Applied Photophysics, SX200) at 25°C. The excitation wavelength was 280 nm and the ﬂuorescence emission was measured using a high-pass filter with a 320 nm cutoff. Binding reaction was initiated by mixing 10 µM FtsB in 20 mM Tris-HCl (pH 7.2) with Fch in a 1∶1 ratio. Kinetics experiments were performed 5 times, and data were analyzed with a second-order or first-order exponential function offered by Origin 7.5 software.

FtsB mutant Y137A [2] = target: T2, FtsB mutant Y137A (Streptococcus pyogenes, UniProt Q9A198, Y137A); assay: Stopped-flow fluorescence binding kinetics; details: Y137A 10 µM mixed with Fch 1∶1, 25°C, pH 7.2, first-order exponential fit; listed as Fch
T2 sequence (Q9A198 21-310 Y137A): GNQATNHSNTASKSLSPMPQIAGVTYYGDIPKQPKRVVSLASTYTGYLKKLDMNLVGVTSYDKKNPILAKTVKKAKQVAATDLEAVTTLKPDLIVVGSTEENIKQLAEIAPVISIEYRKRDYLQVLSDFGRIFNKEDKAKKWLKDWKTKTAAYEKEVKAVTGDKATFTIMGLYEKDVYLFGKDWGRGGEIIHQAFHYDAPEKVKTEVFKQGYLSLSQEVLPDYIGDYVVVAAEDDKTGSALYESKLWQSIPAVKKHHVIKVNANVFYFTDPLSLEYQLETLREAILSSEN
Procedure: as §1

WT FtsB [3] = target: T1, WT FtsB; assay: Fluorescence quenching titration of ferrichrome binding, Hill plot
Procedure: (§2) The interaction between FtsB and Fch was investigated in a fluorescence spectroﬂuorimeter (Hitachi F7000), in which the excitation wavelength was 280 nm (slit width of 2.5 nm) and the emission wavelength was between 290 and 500 nm (slit width of 10 nm). Aliquots of Fch (1 mM stock solution) were gradually added to 1 mL FtsB solution (1.5 µM, in 20 mM Tris–HCl, pH 7.2). Fluorescence spectra were collected after each titration until the spectra were stable. The data were analyzed with Hill plot in Origin 7.5 to acquire the binding capability and dissociation constant (K d). pH dependent Fch binding with FtsB was also examined in the same buffer with pH 3.2–9.2.

FtsB mutant E120A = target: T3, FtsB mutant E120A (Streptococcus pyogenes, UniProt Q9A198, E120A); assay: as above; details: 20 mM Tris-HCl, pH 7.2, read-out: Dissociation constant K d
T3 sequence (Q9A198 21-310 E120A): T2 sequence (Q9A198 21-310 Y137A)
Procedure: (§3) E120A, Y137A, W204A and Y287A mutants were constructed by QuikChange mutagenesis kit (Stratagene) with the wild-type ftsb plasmid as a template, using primers summarized in Table 1. To further study the collective contribution of Glu120, Tyr137, Trp204 and Tyr287 to the Fch binding of FtsB, a tetra-point mutation E120A/Y137A/W204A/Y287A was produced by mutating these four amino acids to alanine simultaneously. The PCR reactions were performed as follows: denaturation at 95°C for 30 s, followed by 16 cycles with denaturation at 95°C for 30 s, annealing at 55°C for 1 min, and extension at 68°C for 6 min [14]. The mutant plasmids were transformed into E. coli XL1-blue for sequencing (Invitrogen). The mutant plasmid with correct sequence was transformed into E. coli BL21 (DE3) star competent cells for subsequent expression. Expression and purification of the FtsB mutants were carried out by following the same protocol as for the wild-type protein.
as §2

FtsB mutant Y287A = target: T4, FtsB mutant Y287A (Streptococcus pyogenes, UniProt Q9A198, Y287A); assay: as above; details: 20 mM Tris-HCl, pH 7.2, read-out: Dissociation constant K d
T4 sequence (Q9A198 21-310 Y287A): T2 sequence (Q9A198 21-310 Y137A)
Procedure: as §3, §2

FtsB mutant W204A = target: T5, FtsB mutant W204A (Streptococcus pyogenes, UniProt Q9A198, W204A); assay: as above
T5 sequence (Q9A198 21-310 W204A): T2 sequence (Q9A198 21-310 Y137A)
Procedure: as §3, §2

[4] = target: T6, FtsB Tetra mutant E120A/Y137A/W204A/Y287A (Streptococcus pyogenes, UniProt Q9A198, E120A/W204A/Y137A/Y287A); assay: as above; details: 20 mM Tris-HCl, pH 7.2, may be no-specific interaction, read-out: Dissociation constant K d
T6 sequence (Q9A198 21-310 E120A/Y137A/W204A/Y287A): T2 sequence (Q9A198 21-310 Y137A)
Procedure: as §3, §2

FtsB mutant Y137A [5] = target: T2, FtsB mutant Y137A; assay: as above
Procedure: as §3, §2

## CC(=O)N([O-])CCC[C@@H]1NC(=O)CNC(=O)CNC(=O)CNC(=O)[C@H](CCCN([O-])C(C)=O)NC(=O)[C@H](CCCN([O-])C(C)=O)NC1=O.[Fe+3] [ferrichrome, Ferrichrome] (cyclo(GGG[Orn(N5-OH,N5-Ac)][Orn(N5-OH,N5-Ac)][Orn(N5-OH,N5-Ac)]))
WT FtsB [1]
  fast rate constant k1: 180.2 ± 5.4 s⁻¹ and 180 s⁻¹
  slow rate constant k2: 18.7 ± 1.3 s⁻¹
FtsB mutant Y137A [2]
  rate constant k: 191.6 ± 7.6 s⁻¹ and 191 s⁻¹
WT FtsB [3]; WT FtsB 1.5 µM, 20 mM Tris-HCl, pH 7.2, read-out: Dissociation constant K d
  Kd: 400 ± 20 nM
WT FtsB [3]; pH dependence examined at pH 3.2–9.2
  pH of maximal binding: 7.2
FtsB mutant E120A
  Kd: 520 ± 30 nM
FtsB mutant Y287A
  Kd: 520 ± 20 nM
FtsB mutant W204A; W204A mutant vs WT FtsB
  folds higher K d in comparison with WT: 10–20 folds
FtsB mutant W204A; W204A mutant, 20 mM Tris-HCl, pH 7.2, read-out: Dissociation constant K d
  Kd: 7050 ± 80 nM
[4]
  Kd: 43900 ± 2500 nM
FtsB mutant Y137A [5]; Y137A mutant vs WT FtsB
  folds higher K d in comparison with WT: 10–20 folds
FtsB mutant Y137A [5]; Y137A mutant, 20 mM Tris-HCl, pH 7.2, read-out: Dissociation constant K d
  Kd: 3700 ± 100 nM
